Source: US20230391752A1, “PYRROLIDINE-3-CARBOXAMIDE DERIVATIVES AND RELATED USES” (Chulalongkorn University, priority 2020, published 2023)

Columns and labels:
[1] = tested on: HBV; assay: In vitro anti-HBV activity in HepG2.2.15 cell line (intracellular HBV DNA by qPCR at 1 μM); format: cell-based; settings: Hepatitis B virus, 144 h; HepG2.2.15 cells, 1 μM compound, 6 days, intracellular HBV DNA as percentage compared to vehicle control (0.5% DMSO)
Outline: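 HepG2.2.15 cells given compound at 1 μM (0.5% DMSO final) for 3 days, then fresh compound-containing medium for 3 more days. After 6 days intracellular HBV DNA measured by qPCR. Expressed as % of 0.5% DMSO vehicle control and binned into letter ranges.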

[2] = tested on: HBV; assay: Effect on intrahepatic HBV DNA levels in HepG2.2.15 cells (EC50); format: cell-based; settings: Hepatitis B virus, 144 h, 6 days, intrahepatic HBV DNA by qPCR, read-out: Anti-HBV DNA (EC50)
Protocol: HepG2.2.15 cells were treated with compounds, at various concentrations in 10% FCS containing medium, at 37° C. for three days. After that the medium was removed and fresh medium containing the compound was added to the cells for another 3 days. After 6 days of treatment, intrahepatic HBV DNA from cell lysates were isolated. Then qPCR reaction of DNA was performed to measure total HBV DNA levels using specific primer set. The fifty-percent effective concentrations (EC50) for HBV DNA inhibition, relative to no drug controls, was determined using nonlinear fitting curve model. EC50 ranges for HBV DNA inhibition were as follows: A>0.3 μM, B=0.05-0.3 μM, C<0.05 μM (Table B).

[3] = Cytotoxicity (MTT) in HepG2.2.15 cells; format: cell-based; settings: human, 6 days treatment, read-out: HepG2.1.15 cytotoxicity (CC50)
Protocol: HepG2.2.15 cells were seeded onto 96-well culture plate and allowed to adhere for 24 hours. The cells were treated with various concentrations of the compounds for 6 days. After treatment, the culture media were discarded and further incubated with serum-free media containing […] of 3-(4,5-dimethylthiazol-2-yl)-2,5-diphenyl tetrazolium bromide (MTT) for 2 hour. The resulting formazan crystals were completely dissolved in dimethyl sulfoxide (DMSO), and then measured absorbance at 570 nm using microplate reader. The concentrations of compounds producing 50% cell death (CC50) were determined from a fitting of concentration-response curve (% cell viability versus concentration) to a four-parameter equation.

[4] = target: T1, HBV core protein (Cp149) (Hepatitis B virus genotype D subtype ayw, UniProt P03146); assay: HBV capsid assembly by size exclusion chromatography (SEC); format: biochemical; settings: 50 μM compound, 15 μM Cp149, 16 hours at 21° C.
T1 construct: HBV core C-terminally truncated protein (HBV Cp149); made in house
T1 sequence (P03146 1-149): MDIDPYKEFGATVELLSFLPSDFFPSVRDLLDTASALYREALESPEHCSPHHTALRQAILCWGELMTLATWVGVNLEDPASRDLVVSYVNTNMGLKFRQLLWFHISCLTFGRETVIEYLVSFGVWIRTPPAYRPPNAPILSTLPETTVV

Row | Structure (SMILES) | activity at 1 µM [1] | EC50 [2] | CC50 at 6 days [3] | Size of induced capsids based on SEC retention times [4]
1 | Cc1cc(NC(=O)[C@H]2CCN(C(=O)c3[nH]c4ccccc4c3Cl)C2)ccc1F [Example 2, (S)-1-(3-chloro-1H-indole-2-carbonyl)-N-(4-fluoro-3-methylphenyl)pyrrolidine-3-carboxamide] | < 45% | < 50 nM | > 25 µM | capsid retention times between BAY 41-4109 and NVR 3-778
2 | O=C(Nc1cc(F)c(F)c(F)c1)[C@H]1CCN(C(=O)c2cc3ccccc3[nH]2)C1 [Example 4, (S)-1-(1H-indole-2-carbonyl)-N-(3,4,5-trifluorophenyl)pyrrolidine-3-carboxamide] | < 45% | > 300 nM | > 25 µM | induced capsids similar in size to NVR 3-778
3 | C[C@H]1[C@@H](C(=O)Nc2cc(F)c(F)c(F)c2)CCN1C(=O)c1ccc(C#N)[nH]1 [Example 19, (2S,3S)-1-(5-cyano-1H-pyrrole-2-carbonyl)-2-methyl-N-(3,4,5-trifluorophenyl)pyrrolidine-3-carboxamide] | < 45% | 50 to 300 nM | > 25 µM | induced capsids similar in size to NVR 3-778
4 | Cc1ccc(C(=O)N2CC[C@H](C(=O)Nc3cc(F)c(F)c(Cl)c3)[C@@H]2C)[nH]1 [Example 20, (2S,3S)—N-(3-chloro-4,5-difluorophenyl)-2-methyl-1-(5-methyl-1H-pyrrole-2-carbonyl) pyrrolidine-3-carboxamide] | < 45% | > 300 nM | 10 to 25 µM | induced capsids similar in size to NVR 3-778
5 | C[C@H]1[C@@H](C(=O)Nc2cc(F)c(F)c(F)c2)CCN1C(=O)c1ccc(Cl)[nH]1 [Example 60, (2S,3S)-1-(5-chloro-1H-pyrrole-2-carbonyl)-2-methyl-N-(3,4,5-trifluorophenyl)pyrrolidine-3-carboxamide] | < 45% | 50 to 300 nM | > 25 µM | induced capsids similar in size to NVR 3-778
6 | Cc1cc(NC(=O)[C@H]2CCN(C(=O)c3ccc(-c4c(C)n[nH]c4C)[nH]3)C2)ccc1F [Example 101, (S)-1-(5-(3,5-dimethyl-1H-pyrazol-4-yl)-1H-pyrrole-2-carbonyl)-N-(4-fluoro-3-methylphenyl)pyrrolidine-3-carboxamide] | < 45% | 50 to 300 nM | > 25 µM | induced capsids similar in size to NVR 3-778
7 | Cc1cc(NC(=O)[C@H]2CCN(C(=O)c3ccc(-c4ccnnc4)[nH]3)[C@H]2C)ccc1F [Example 102, (2S,3S)—N-(4-fluoro-3-methylphenyl)-2-methyl-1-(5-(pyridazin-4-yl)-1H-pyrrole-2-carbonyl) pyrrolidine-3-carboxamide] | < 45% | < 50 nM | > 25 µM | induced capsids similar in size to NVR 3-778
8 | Cc1cc(NC(=O)[C@H]2CCN(C(=O)c3ccc(-c4c(C)n[nH]c4C)[nH]3)[C@H]2C)ccc1F [Example 103, (2S,3S)-1-(5-(3,5-dimethyl-1H-pyrazol-4-yl)-1H-pyrrole-2-carbonyl)-N-(4-fluoro-3-methylphenyl)-2-methylpyrrolidine-3-carboxamide] | < 45% | < 50 nM | 10 to 25 µM | induced capsids similar in size to NVR 3-778
9 | Cc1n[nH]c(C)c1-c1ccc(C(=O)N2CC[C@H](C(=O)Nc3ccc(F)c(Cl)c3)[C@@H]2C)[nH]1 [Example 105, (2S,3S)—N-(3-chloro-4-fluorophenyl)-1-(5-(3,5-dimethyl-1H-pyrazol-4-yl)-1H-pyrrole-2-carbonyl)-2-methylpyrrolidine-3-carboxamide] | < 45% | < 50 nM | < 10 µM | 
10 | C[C@H]1[C@@H](C(=O)Nc2ccc(F)c(F)c2)CCN1C(=O)c1ccc(-c2ccnnc2)[nH]1 [Example 110, (2S,3S)—N-(3,4-difluorophenyl)-2-methyl-1-(5-(pyridazin-4-yl)-1H-pyrrole-2-carbonyl) pyrrolidine-3-carboxamide] | < 45% | 50 to 300 nM | > 25 µM | induced capsids similar in size to NVR 3-778
11 | Cc1ncnc(C)c1-c1ccc(C(=O)N2CC[C@H](C(=O)Nc3cc(F)c(F)c(F)c3)[C@@H]2C)[nH]1 [Example 111, (2S,3S)-1-(5-(4,6-dimethylpyrimidin-5-yl)-1H-pyrrole-2-carbonyl)-2-methyl-N-(3,4,5-trifluorophenyl)pyrrolidine-3-carboxamide] | < 45% | < 50 nM | < 10 µM | induced capsids similar in size to NVR 3-778
12 | Cc1[nH]nc(C(F)(F)F)c1-c1ccc(C(=O)N2CC[C@H](C(=O)Nc3ccc(F)c(C#N)c3)[C@@H]2C)[nH]1 [Example 113, (2S,3S)—N-(3-cyano-4-fluorophenyl)-2-methyl-1-(5-(5-methyl-3-(trifluoromethyl)-1H-pyrazol-4-yl)-1H-pyrrole-2-carbonyl)pyrrolidine-3-carboxamide] | < 45% | < 50 nM | 10 to 25 µM | induced capsids similar in size to NVR 3-778
13 | Cc1cc(NC(=O)[C@H]2CCN(C(=O)c3ccc(-c4c(C(F)(F)F)n[nH]c4C)[nH]3)C2)ccc1F [Example 114] | < 45% | < 50 nM | 10 to 25 µM | induced capsids similar in size to NVR 3-778
14 | Cc1cnnc(C)c1-c1ccc(C(=O)N2CC[C@H](C(=O)Nc3ccc(F)c(F)c3)C2)[nH]1 [Example 115, (S)—N-(3,4-difluorophenyl)-1-(5-(3,5-dimethylpyridazin-4-yl)-1H-pyrrole-2-carbonyl)pyrrolidine-3-carboxamide] | < 45% | 50 to 300 nM | > 25 µM | induced capsids similar in size to NVR 3-778
15 | Cc1cnnc(C)c1-c1ccc(C(=O)N2CC[C@H](C(=O)Nc3ccc(F)c(C#N)c3)[C@@H]2C)[nH]1 [Example 116, (2S,3S)—N-(3-cyano-4-fluorophenyl)-1-(5-(3,5-dimethylpyridazin-4-yl)-1H-pyrrole-2-carbonyl)-2-methylpyrrolidine-3-carboxamide] | 45 to 60% | 50 to 300 nM | > 25 µM | 
16 | Cc1cc(NC(=O)[C@H]2CCN(C(=O)c3ccc(-c4c(C)cnnc4C)[nH]3)C2)ccc1F [Example 117, (S)-1-(5-(3,5-dimethylpyridazin-4-yl)-1H-pyrrole-2-carbonyl)-N-(4-fluoro-3-methylphenyl)pyrrolidine-3carboxamide] | 45 to 60% | < 50 nM | > 25 µM | 
17 | Cc1cc[nH]c(=O)c1-c1ccc(C(=O)N2CC[C@H](C(=O)Nc3ccc(F)c(Cl)c3)[C@@H]2C)[nH]1 [Example 119, (2S,3S)—N-(3-chloro-4-fluorophenyl)-2-methyl-1-(5-(4-methyl-2-oxo-1,2-dihydropyridin-3-yl)-1H-pyrrole-2-carbonyl)pyrrolidine-3-carboxamide] | < 45% | 50 to 300 nM | > 25 µM | 
